We go through 26 compounds from patent US12209087B2, “AKT1 modulators” (Alterome Therapeutics, Inc., priority 2022, dated 2025).

The first test deals with T1, full length AKT E17K (Homo sapiens, UniProt P31749, E17K).
T1 construct: host or cells: HEK-293 (ATCC CRL-1573)
T1 sequence (P31749 whole entry E17K): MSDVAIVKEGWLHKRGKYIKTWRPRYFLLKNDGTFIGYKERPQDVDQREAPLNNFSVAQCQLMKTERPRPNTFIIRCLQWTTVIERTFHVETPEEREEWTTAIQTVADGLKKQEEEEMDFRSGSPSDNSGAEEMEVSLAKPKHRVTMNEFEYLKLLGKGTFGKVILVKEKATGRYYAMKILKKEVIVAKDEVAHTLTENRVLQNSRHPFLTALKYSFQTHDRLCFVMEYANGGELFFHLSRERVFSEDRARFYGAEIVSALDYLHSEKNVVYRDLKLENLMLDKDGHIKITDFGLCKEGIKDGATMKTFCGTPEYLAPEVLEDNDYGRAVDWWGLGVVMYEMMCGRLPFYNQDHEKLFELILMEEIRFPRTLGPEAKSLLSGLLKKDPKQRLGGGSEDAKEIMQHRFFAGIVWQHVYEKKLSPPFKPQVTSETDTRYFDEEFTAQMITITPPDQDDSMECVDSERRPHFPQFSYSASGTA
Nature of the test: NanoBRET Target Engagement (TE) Assay. It is filed as cell-based. The following applies: competitive displacement of tracer in cells, read-out: AKT1 E17K IC50. The method in brief: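 Compound and tracer incubated 2 h before luminescence at donor 450 nm and acceptor 600 nm, with extracellular signal inhibited. EC50 by sigmoidal variable-slope regression.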
On to `Cn1cnnc1-c1ccc2nc(-c3cccnc3N)n(-c3ccc(CN4CCC(Nc5ccnc(C#N)n5)CC4)cc3)c2n1` [Example 569, 4-((1-(4-(2-(2-Aminopyridin-3-yl)-5-(4-methyl-4H-1,2,4-triazol-3-yl)-3H-imidazo[4,5-b]pyridin-3-yl)benzyl)piperidin-4-yl)amino)pyrimidine-2-carbonitrile], for which the IC50 (usually the concentration that inhibits the measured activity by half) lay in the range of 60 to 600 nM.
Same read-out and setting: the same measure for `N#Cc1nccc(N2C[C@@H]3CN(Cc4ccc(-n5c(-c6cccnc6N)nc6ccc(-c7ccccc7)nc65)cc4)C[C@H]3C2)n1` [Example 367, 4-((3aS,6aS)-5-(4-(2-(2-aminopyridin-3-yl)-5-phenyl-3H-imidazo[4,5-b]pyridin-3-yl)benzyl)hexahydropyrrolo[3,4-c]pyrrol-2(1H)-yl)pyrimidine-2-carbonitrile]: below 15 nM.
Take `Cn1c(-c2ccc3nc(-c4cccnc4N)n(-c4ccc(CN5CCC(Nc6ccnc(C#N)n6)CC5)cc4)c3n2)cccc1=O` [Example 393, 4-((1-(4-(2-(2-Aminopyridin-3-yl)-5-(1-methyl-6-oxo-1,6-dihydropyridin-2-yl)-3H-imidazo[4,5-b]pyridin-3-yl)benzyl)piperidin-4-yl)amino)pyrimidine-2-carbonitrile]: the IC50 fell in the range of 600 to 10000 nM.
For the compound `[2H]C([2H])(F)Oc1ccc(-c2ccc3nc(-c4cccnc4N)n(-c4ccc(CN5CCC(Nc6ccnc(C#N)n6)CC5)cc4)c3n2)cn1` [Example 623, 4-((1-(4-(2-(2-Aminopyridin-3-yl)-5-(6-(fluoromethoxy-d2)pyridin-3-yl)-3H-imidazo[4,5-b]pyridin-3-yl)benzyl)piperidin-4-yl)amino)pyrimidine-2-carbonitrile], the IC50 was below 15 nM.
`COc1cccc(-c2ccc3nc(-c4cccnc4N)n(-c4ccc(CN5CCC(Nc6ccnc(C#N)n6)CC5)cc4)c3n2)n1` [Example 476, 4-((1-(4-(2-(2-Aminopyridin-3-yl)-5-(6-methoxypyridin-2-yl)-3H-imidazo[4,5-b]pyridin-3-yl)benzyl)piperidin-4-yl)amino)pyrimidine-2-carbonitrile]: the IC50 was below 15 nM.
Take `COc1ccc(-c2ccc3nc(-c4cccnc4N)n(-c4ccc(CN5CCC(Nc6ccnc(C#N)n6)CC5)cc4)c3n2)cc1` [Example 421, 4-((1-(4-(2-(2-Aminopyridin-3-yl)-5-(4-methoxyphenyl)-3H-imidazo[4,5-b]pyridin-3-yl)benzyl)piperidin-4-yl)amino)pyrimidine-2-carbonitrile]: the IC50 is below 15 nM.
Same read-out and setting: the result for `N#Cc1nccc(NC2CCN(Cc3ccc(-n4c(-c5cccnc5N)nc5ccc(C6=CCCC6)nc54)cc3)CC2)n1` [Example 453, 4-((1-(4-(2-(2-aminopyridin-3-yl)-5-(cyclopent-1-en-1-yl)-3H-imidazo[4,5-b]pyridin-3-yl)benzyl)piperidin-4-yl)amino)pyrimidine-2-carbonitrile] reads below 15 nM; that for `[2H]C([2H])([2H])c1nn(C)nc1-c1ccc2nc(-c3cccnc3N)n(-c3ccc(CN4CCC(Nc5ccnc(C#N)n5)CC4)cc3)c2n1` [Example 612, 4-((1-(4-(2-(2-Aminopyridin-3-yl)-5-(2-methyl-5-(methyl-d3)-2H-1,2,3-triazol-4-yl)-3H-imidazo[4,5-b]pyridin-3-yl)benzyl)piperidin-4-yl)amino)pyrimidine-2-carbonitrile], below 15 nM.
Same read-out and setting: the same measure for `N#Cc1nccc(NC2CCN(Cc3ccc(-n4c(-c5cccnc5N)nc5cc(Br)c(-c6ccc(F)cc6)nc54)cc3)CC2)n1` [Example 549, 4-((1-(4-(2-(2-Aminopyridin-3-yl)-6-bromo-5-(4-fluorophenyl)-3H-imidazo[4,5-b]pyridin-3-yl)benzyl)piperidin-4-yl)amino)pyrimidine-2-carbonitrile]: below 15 nM; for `N#Cc1ncc(C(=O)N2CCN(Cc3ccc(-n4c(-c5cccnc5N)nc5ccc(-c6ccccc6)nc54)cc3)CC2)s1` [Example 327, 5-(4-(4-(2-(2-Aminopyridin-3-yl)-5-phenyl-3H-imidazo[4,5-b]pyridin-3-yl)benzyl)piperazine-1-carbonyl)thiazole-2-carbonitrile]: 60 to 600 nM; for `N#Cc1nccc(NC2CCN(Cc3ccc(-n4c(-c5cccnc5N)nc5ccc(-c6cnn(CF)n6)nc54)cc3)CC2)n1` [Example 618, 4-((1-(4-(2-(2-Aminopyridin-3-yl)-5-(2-(fluoromethyl)-2H-1,2,3-triazol-4-yl)-3H-imidazo[4,5-b]pyridin-3-yl)benzyl)piperidin-4-yl)amino)pyrimidine-2-carbonitrile]: below 15 nM.
With `N#Cc1nccc(NC2CCN(Cc3ccc(-n4c(-c5cccnc5N)nc5ccc(-c6ccccc6C#N)nc54)cc3)CC2)n1` [Example 335, 4-((1-(4-(2-(2-Aminopyridin-3-yl)-5-(2-cyanophenyl)-3H-imidazo[4,5-b]pyridin-3-yl)benzyl)piperidin-4-yl)amino)pyrimidine-2-carbonitrile], the half-inhibitory concentration (IC50) was below 15 nM.
In the case of `N#Cc1nccc(NC2CCN(Cc3ccc(-n4c(-c5cccnc5N)nc5ccc(OC(F)(F)F)nc54)cc3)CC2)n1` [Example 423, 4-((1-(4-(2-(2-Aminopyridin-3-yl)-5-(trifluoromethoxy)-3H-imidazo[4,5-b]pyridin-3-yl)benzyl)piperidin-4-yl)amino)pyrimidine-2-carbonitrile], the IC50 lay in the range of 60 to 600 nM.
On the same count and under the same terms, the same measure for `N#Cc1nccc(NC2CCN(Cc3ccc(-n4c(-c5cccnc5N)nc5ccc(-c6ccc(OC(F)F)cn6)nc54)cc3)CC2)n1` [Example 579, 4-((1-(4-(2-(2-Aminopyridin-3-yl)-5-(5-(difluoromethoxy)pyridin-2-yl)-3H-imidazo[4,5-b]pyridin-3-yl)benzyl)piperidin-4-yl)amino)pyrimidine-2-carbonitrile]: below 15 nM; for `N#Cc1nccc(NC2CCN(Cc3ccc(-n4c(-c5cccnc5N)nc5ccc(-c6ccnc(OC(F)F)c6)nc54)cc3)CC2)n1` [Example 543, 4-((1-(4-(2-(2-aminopyridin-3-yl)-5-(2-(difluoromethoxy)pyridin-4-yl)-3H-imidazo[4,5-b]pyridin-3-yl)benzyl)piperidin-4-yl)amino)pyrimidine-2-carbonitrile]: 15 to 60 nM.

Still in this test, the particulars now being: competitive tracer displacement in living cells, read-out: AKT1 E17K IC50.
Turning to `N#Cc1cc(N2CCCN(Cc3ccc(-n4c(-c5cccnc5N)nc5ccc(-c6ccccc6)nc54)cc3)CC2)ncn1` [Example 215, 6-(4-(4-(2-(2-aminopyridin-3-yl)-5-phenyl-3H-imidazo[4,5-b]pyridin-3-yl)benzyl)-1,4-diazepan-1-yl)pyrimidine-4-carbonitrile], the IC50 is below 15 nM.
Regarding `N#Cc1nc2cc(F)cc(C(=O)N3CCN(Cc4ccc(-n5c(-c6cccnc6N)nc6cccnc65)cc4)CC3)c2s1` [Example 175, 7-(4-(4-(2-(2-aminopyridin-3-yl)-3H-imidazo[4,5-b]pyridin-3-yl)benzyl)piperazine-1-carbonyl)-5-fluorobenzo[d]thiazole-2-carbonitrile], the IC50 was 600 to 10000 nM.
The same measure, in the same setting: the same measure for `Cn1cccc(-c2ccc3nc(-c4cccnc4N)n(-c4ccc(CN5CCN(c6ccnc(C#N)n6)CC5)cc4)c3n2)c1=O` [Example 260, 4-(4-(4-(2-(2-aminopyridin-3-yl)-5-(1-methyl-2-oxo-1,2-dihydropyridin-3-yl)-3H-imidazo[4,5-b]pyridin-3-yl)benzyl)piperazin-1-yl)pyrimidine-2-carbonitrile]: 15 to 60 nM.
The same measure, in the same setting: the same measure for `N#Cc1cccnc1OC1CCN(Cc2ccc(-n3c(-c4cccnc4N)nc4ccc(-c5ccccc5)nc43)cc2)CC1` [Example 9, 2-((1-(4-(2-(2-Aminopyridin-3-yl)-5-phenyl-3H-imidazo[4,5-b]pyridin-3-yl)benzyl)piperidin-4-yl)oxy)nicotinonitrile]: 60 to 600 nM; for `N#Cc1nccc(C(=O)NCc2ccc(-n3c(-c4cccnc4N)nc4cccnc43)cc2)n1` [Example 148, N-(4-(2-(2-Aminopyridin-3-yl)-3H-imidazo[4,5-b]pyridin-3-yl)benzyl)-2-cyanopyrimidine-4-carboxamide]: 600 to 10000 nM.
The same measure, in the same setting: the same measure for `N#Cc1cccnc1OC1CCN(Cc2ccc(-n3c(-c4cccnc4N)nc4cc(-c5ccccc5)cnc43)cc2)CC1` [Example 12, 2-((1-(4-(2-(2-Aminopyridin-3-yl)-6-phenyl-3H-imidazo[4,5-b]pyridin-3-yl)benzyl)piperidin-4-yl)oxy)nicotinonitrile]: 600 to 10000 nM; for `N#Cc1nccc(C(=O)NC2CCN(Cc3ccc(-n4c(-c5cccnc5N)nc5cccnc54)cc3)CC2)n1` [Example 32, N-(1-(4-(2-(2-Aminopyridin-3-yl)-3H-imidazo[4,5-b]pyridin-3-yl)benzyl)piperidin-4-yl)-2-cyanopyrimidine-4-carboxamide]: 60 to 600 nM.
For the compound `N#Cc1cc(NC2CCN(Cc3ccc(-n4c(-c5cccnc5N)nc5ccc(C6CC6)nc54)cc3)CC2)ncn1` [Example 291, 6-((1-(4-(2-(2-Aminopyridin-3-yl)-5-cyclopropyl-3H-imidazo[4,5-b]pyridin-3-yl)benzyl)piperidin-4-yl)amino)pyrimidine-4-carbonitrile], the IC50 fell in the range of 15 to 60 nM.
On the same count and under the same terms, the result for `N#Cc1cc(N2CCN(Cc3ccc(-n4c(-c5cccnc5N)nc5ccc(-c6cccc(F)c6)nc54)cc3)CC2)ncn1` [Example 310, 6-(4-(4-(2-(2-Aminopyridin-3-yl)-5-(3-fluorophenyl)-3H-imidazo[4,5-b]pyridin-3-yl)benzyl)piperazin-1-yl)pyrimidine-4-carbonitrile] reads below 15 nM; that for `N#Cc1ccc(NCc2ccc(-n3c(-c4cccnc4N)nc4cccnc43)cc2)cn1` [Example 128, 5-((4-(2-(2-Aminopyridin-3-yl)-3H-imidazo[4,5-b]pyridin-3-yl)benzyl)amino)picolinonitrile], 600 to 10000 nM; that for `N#Cc1ncc(C(=O)NCc2ccc(-n3c(-c4cccnc4N)nc4cccnc43)cc2)cn1` [Example 119, N-(4-(2-(2-Aminopyridin-3-yl)-3H-imidazo[4,5-b]pyridin-3-yl)benzyl)-2-cyanopyrimidine-5-carboxamide], 600 to 10000 nM.
